Test system: rat primary visceral fat cells
Assay: Cell test: fat droplet area (Oil Red O staining) in visceral fat cells
Type: cell-based
Details: test solution in DMSO diluted 1000-fold with medium; cultured 2+2 days; vs control group (DMSO); FIG. 15, p 0.01 or less
Method: 100 μL of dimethylsulfoxide (DMSO) was added to 4.147 mg of unsaponifiable matter, or 259.65 μL of dimethylsulfoxide (DMSO) was added to 1.0716 mg of the avenasterol fraction, and which was sonicated for 1 minute to obtain a test solution. The test solution of the unsaponifiable matter (avenasterol concentration: 1.41 mg/ml) was referred to as an unsaponifiable matter group, and the test solution of the avenasterol (avenasterol concentration: 3.60 mg/ml) was referred to as an avenasterol fraction group. Furthermore, a DMSO without the unsaponifiable matter nor the avenasterol fraction (control group) was prepared. Each test solution in each group was diluted 1000-fold with a medium described in the following “Cell test”, and sonicated for 1 minute to obtain a medium with the test solution. […]
The medium was removed, and the inside of the well was washed with 0.5 mL of phosphate buffered saline (PBS). […] The cells were microscopically observed at a magnification of 200 times, and visceral fat cells with stained fat droplets were recorded as images on a recording device of a computer.
Area values of the lipid droplets stained with the Oil Red O on the above-described images were measured using the image processing software ImageJ (1.48 v) (obtained from https://imagej.nih.gov/ij/). The cell test was carried out three times, and four images were recorded in each group for each cell test. […]

Q: With Avenasterol as the substance, how does the “fat accumulation in the fat cell (relative area value of fat droplets)” value read?
A: significantly inhibited

— patent publication US20190224260A1, “Metabolic Syndrome Inhibitor” (J-OIL MILLS, INC., priority 2016, published 2019)
